Laboratory results reported in patent publication US10238713B2, “Cyclic tetrapeptides and therapeutic applications thereof” (LODZ UNIVERSITY OF TECHNOLOGY, priority 2010, dated 2019).
Values joined by “and” are separate entries in the source; they are usually repeats but may differ in a detail not shown here. Equal values may be shown once. Read-outs that look alike come from different tables or passages of the source. Non-standard residues stand in square brackets, D forms with d. Residues, ends and D or L forms follow the SMILES beside them. β3hF = N[C@H](CC(=O)O)Cc1ccccc1

Experiments:
[1] = test system: PHA-induced proliferation of human peripheral blood mononuclear cells (PBMC); experiment: Proliferative response of PBMC to PHA (MTT); assay type: cell-based; settings: 1 μg/ml, four-day incubation; FIGS. 9A-9B; listed as 4B8M
Procedure: PBMC were isolated by centrifugation on Ficoll-uropoline gradient (density 1.077 g/ml) (Lymphoprep; PAA Laboratories), at 800×g for 20 min at 4° C. The interphase cells, consisting of lymphocytes (20%) and monocytes (80%) were then washed three times with Hanks' medium and re-suspended in the culture medium at density of 2×10^6 cells/ml.
The isolated PBMC were distributed into 96-well flat-bottom plates in 100 μl aliquots (2×10^5 cells/well). PHA was used at concentration of 5 μg/ml. The compounds were tested at concentrations of 1, 10 and 100 μg/ml. DMSO at appropriate dilutions served as control. After a four-day incubation in a cell culture incubator, the proliferative response of cells was determined by the colorimetric MTT method (Hansen et al., J. Immunol. Methods, 1989, pp. 203-210). The data are presented as a mean OD value from quadriplicate wells ±standard error (SE). The cultures “Control (−)” contained no mitogen (PHA). The cultures “Control (PHA)” contained PHA but not cyclic tetrapeptides.
Briefly, 25 μl of MTT (5 mg/ml) stock solution was added per well at the end of cell incubation and the plates were incubated for 3 h in a cell culture incubator. Then, 100 μl of the extraction buffer (20% SDS with 50% DMF, pH 4.7) was added. After additional overnight incubation, the optical density was measured at 550 nm (Dynatech 5000).

[2] = test system: LPS-induced TNF-α production; assay type: cell-based; settings: for % inhibition vs. DMSO / TNF-α: Table 2A
Procedure: Human whole blood was diluted 10-fold with RPMI-1640 medium and distributed to 24-well culture plates in 1 ml aliquots. LPS was added to the culture at a concentration of 1 μg/ml. The studied peptides were used at concentrations of 1, 10 and 100 μg/ml. After overnight incubation, the supernatants were harvested and frozen at −20° C. until cytokine determination. TNF-α activity was determined using a bioassay. Briefly, WEHI 164.13 cells (ATCC CRL 1751) were seeded at a concentration of 2×10^4 cells/well in quadriplicate. Increasing dilutions of the assayed supernatant were mixed with the target cells in the presence of actinomycin D (1 μg/ml). After 20 h of incubation, MTT was added into the wells, and the cultures were incubated for an additional 4 h. […] The detection limit of the assay was about 2.5 pg/ml. One unit of TNF-α activity was defined as an inverse of supernatant dilution where 50% cell death took place. The cultures labeled “Control (−)” contained no LPS. The cultures labeled “Control (LPS)” contained LPS and none of the studied compounds. Statistical analysis was not applied since the data derive from single cultures (wells).

[3] = test system: BALB/c mice, immune response to TDI; experiment: Toluene diisocyanate (TDI)-induced ear inflammation in BALB/c mice; assay type: in vivo
Procedure: BALB/c female mice, 8-10 weeks old, were delivered by the Institute of Laboratory Medicine, Łódź, Poland. The mice were fed a commercial, pelleted food and water ad libitum. The local ethics committee approved the study.
The test was performed according to Yamamoto, Eur. J. Pharmacol., 2006, 550, 166-172, with minor modifications. Mice were shaved on the abdomen (2×2 cm area) and after 24 h 100 μl of 3% TDI in acetone was applied through 3 consecutive days. After 14 days the reaction was elicited by application of 50 μl of 0.3% TDI on both sides of the ears. The procedure was repeated 5 times every 3 days. Ear thickness was measured using a spring caliper (Mitutoyo) 5 h and 24 h after each challenge with TDI.
Compound I-A was applied topically in the form of 0.1% ointment on both sides of the ears (total volume of 100 μl-50 μl per ear), one hour after each challenge with TDI. The reference drugs were applied in a similar way.
Superficial parotid, mandibular and accessory mandibular lymph nodes were isolated, homogenized by pressing against a stainless screen into PBS, washed 2× with PBS and re-suspended in PBS containing 0.2% Trypan blue. The total and nonviable cell numbers were counted using a light microscope and Bürker's hemocytometer.
Mice were subjected to halothane anesthesia and bled from the retro-orbital plexus, followed by the cervical dislocation. The number of blood leukocytes was determined by dilution of blood in Turk's solution and counting the cells in a hemocytometer. Blood smears were prepared on microscope glass, dried and stained with Giemsa and May-Grünwald reagents. The smears were subsequently reviewed histologically. The cell numbers were presented per 1 μl and the blood cell compositions as a percentage of a given cell type.
Mice were given 1 mg of Evans blue in 0.2 ml of 0.9% NaCl, intravenously. After 30 min mice were sacrificed, the ears were cut off, weighed and immersed in 50 μl of 1M KOH for 18 h at 37° C. The dye was extracted from the ears using 450 μl of 0.2 M phosphate acid and acetone (5:13 ratio). The samples were centrifuged at 3,000 rpm for 15 min. The optical densities (OD) of the supernatants were measured at 630 nm. The amount of Evans blue (g/ml) was determined based on a standard curve. The results were presented as the amount of Evans blue per 100 mg of wet tissue. Mice treated only with the eliciting dose of antigen served as a background control.
The auricles were fixed in 4% formalin solution for 48 h, washed for 24 h, dehydrated in an alcohol series and embedded in paraffin. The paraffin blocks were sliced in a Micron HM310 microtome into […]. The sections were stained with haematoxylin and eosin and with toluidine blue. Histological analysis was performed using a Nikon Eclipse 801light microscope. Morphometric estimations of neutrophils, macrophages, lymphocytes and mast cells in the perivascular and subepithelial connective tissue were performed on the histological slides containing cross-sections of auricles. Cells were counted on an area of 0.07 mm^2 at 400× magnification. Morphometric analysis was performed using an imagine software NIS-Elements (Nikon). For every preparation examined, 25 enumerations of neutrophils, macrophages, lymphocytes and mast cells were carried out.

[4] = test system: CBA mice, humoral immune response to sheep erythrocytes; experiment: Primary humoral immune response to SRBC in vivo (antibody-forming cells in spleen); settings: 10 or 100 μg, intraperitoneal, 2 h after immunization, measured after 4 days; FIG. 6
Procedure: CBA female mice, 8-12 weeks old, were delivered by The Institute of Laboratory Medicine, Lodz, Poland. The mice had free access to water and pelleted food. The local ethics committee approved the study. Sheep erythrocytes (SRBC) were delivered by Wroclaw University of Life and Environmental Sciences, Poland, and maintained on RPMI-1640 medium.
Mice were immunized with 0.2 ml of 5% SRBC suspension (0.5 ml of SRBC pellet re-suspended to a volume of 10 ml of 0.9% NaCl), intraperitonelly. After 4 days the number of antibody-forming cells (AFC) in the spleens was determined using an assay of local hemolysis in agar gel (per Mishell et al., J Exp Med, 1967, 126, 423-442). The results are presented in FIG. 6 as a mean value of 5 mice ±standard error and expressed as AFC number per 10^6 of viable splenocytes.
Mice were immunized with SRBC as described above and after 2 h were given 10 or 100 μg of the compound of formula I-A. Cyclosporin A (CsA) served as a reference drug. The number of antibody-forming cells to SRBC was measured after 4 days.

O=C1C[C@H](Cc2ccccc2)NC(=O)[C@@H]2CCCN2C(=O)[C@@H]2CCCN2C(=O)[C@H](Cc2ccccc2)N1 [I-A] (cyclo(FPP[β3hF]))
PHA-induced PBMC proliferation, P vs DMSO at appropriate dilution [1]: 0.9995 and 0.9919 | % inhibition vs. DMSO ([2]; compound 1 μg/ml): 9.8% | TNF-α ([2]; compound 1 μg/ml, LPS 1 μg/ml, overnight): 7364 pg/mL | % inhibition vs. DMSO ([2]; compound 10 μg/ml): 10.4% | TNF-α ([2]; compound 10 μg/ml): 7176 pg/mL | % inhibition vs. DMSO ([2]; compound 100 μg/ml): 9.2% | TNF-α ([2]; compound 100 μg/ml (DMSO only: 196)): 178 pg/mL | % of inhibition vs. DMSO ([2]; Table 2B, compound 1 μg/ml): 10.0% | TNF alpha ([2]; Table 2B, compound 1 μg/ml): 4097 pg/mL | TNF alpha ([2]; Table 2B, compound 10 μg/ml): 4416 pg/mL | TNF alpha ([2]; Table 2B, compound 100 μg/ml (DMSO only: 854)): 979 pg/mL | ear thickness, P vs Control ([3]; 5 h after challenge, Day 14, topical 1 h after each TDI challenge, FIG. 10A): 0.0005 | ear thickness, P vs Control ([3]; 5 h after challenge, Day 17, FIG. 10A): 0.0001 | ear thickness, P vs Control ([3]; 5 h after challenge, Day 20, FIG. 10A): 0.0001 | ear thickness, P vs Control ([3]; 5 h after challenge, Day 23, FIG. 10A): 0.0001 | ear thickness, P vs Control ([3]; 5 h after challenge, Day 27, FIG. 10A): 0.0001 | ear thickness, P vs Control ([3]; 24 h after challenge, Day 14, FIG. 10B): 0.0001 | ear thickness, P vs Control ([3]; 24 h after challenge, Day 17, FIG. 10B): 0.0001 | ear thickness, P vs Control ([3]; 24 h after challenge, Day 20, FIG. 10B): 0.0006 | ear thickness, P vs Control ([3]; 24 h after challenge, Day 23, FIG. 10B): 0.0001 | ear thickness, P vs Control ([3]; 24 h after challenge, Day 27, FIG. 10B): 0.0001 | permeability of capillary blood vessels in the Evans blue test, P vs Control ([3]; 24 h after the fifth challenge with TDI (day 28), FIG. 11): 0.030 | total number of cells in the draining lymph nodes, P vs Control ([3]; ANOVA of Kruskal-Wallis, FIG. 12): 0.0001 | numbers of circulating leukocytes, P vs Control ([3]; ANOVA, FIG. 13): 0.0001 | total number of cells in the draining lymph nodes ([3]; FIG. 12): reduction of the lymph node cell numbers almost to the background levels | blood cell composition, Eosinophils (E), P vs Control ([3]; FIG. 14): 0.0001 | blood cell composition, Lymphocytes (L), P vs Control ([3]; FIG. 14): 0.0043 | blood picture (neutrophil and eosinophil contents) ([3]; FIG. 14): normalized | auricle Ne (neutrophils), P vs Control ([3]; FIG. 15): 0.0151 | cell numbers in the auricles after treatment ([3]; area 0.07 mm^2, cell type not stated, sensitized untreated control: 20 mastocytes, 23 neutrophils, FIG. 15): 14.8 cells per the analyzed area | inhibition of the number of antibody-forming cells to SRBC [4]: more inhibitory at both doses than CsA
